# Reference: ChEMBL document CHEMBL4428082, “Aligning Potency and Pharmacokinetic Properties for Pyridine-Based NCINIs” (ACS Med Chem Lett, 2016)
# Assays:
# [1] = Inhibition of HIV NL4.3 integrase T124/T125 double mutant assessed as reduction in viral replication by luciferase reporter gene assay; set-up: species or system Human immunodeficiency virus
# [2] = Inhibition of HIV NL4.3 integrase N124/T125 double mutant assessed as reduction in viral replication by luciferase reporter gene assay; set-up: species or system Human immunodeficiency virus
# [3] = test system: Human immunodeficiency virus; experiment: Ratio of EC50 for HIV1 NL4.3 integrase N124/T125 double mutant in presence of human serum to EC50 for HIV1 NL4.3 integrase N124/T125 double mutant in absence of human serum
# [4] = Half life in human liver microsomes; assay type: ADME, Microsome
# [5] = Clearance in rat relative to hepatic blood flow; assay type: ADME; details: in vivo
# [6] = Half life in bile duct cannulated rat; assay type: ADME; details: in vivo
# [7] = Half life in rat; assay type: ADME; details: in vivo
# [8] = Apparent permeability in human Caco2 cells; assay type: ADME, cell-based; details: Caco-2
# [9] = Solubility of the compound at pH 6.8; assay type: physicochemical; details: buffer
# [10] = Clearance in human hepatocytes relative to hepatic blood flow; assay type: ADME, cell-based, Hepatocyte; details: read-out: CLH
# [11] = Clearance in rat hepatocytes relative to hepatic blood flow; assay type: ADME, cell-based, Hepatocyte; details: read-out: CLH
# [12] = Clearance in iv dosed rat relative to hepatic blood flow; assay type: ADME, organism-based; details: in vivo
# [13] = Volume of distribution at steady state in rat; assay type: ADME; details: in vivo, read-out: Vdss
# [14] = Total drug excretion in rat bile assessed as acyl glucuronide of parent compound at 3 hrs; assay type: ADME, tissue-based; details: in vivo
# [15] = Inhibition of HIV NL4.3 integrase T124/T125 double mutant infected in PBMC assessed as reduction in viral replication by p24 ELISA; details: Human immunodeficiency virus 1, NL4.3
# [16] = Inhibition of HIV NL4.3 integrase T124/A125 double mutant infected in PBMC assessed as reduction in viral replication by p24 ELISA; details: Human immunodeficiency virus 1, NL4.3
# [17] = Inhibition of HIV NL4.3 integrase A124/T125 double mutant infected in PBMC assessed as reduction in viral replication by p24 ELISA; details: Human immunodeficiency virus 1, NL4.3
# [18] = Inhibition of HIV NL4.3 integrase A124/A125 double mutant infected in PBMC assessed as reduction in viral replication by p24 ELISA; details: Human immunodeficiency virus 1, NL4.3
# [19] = Inhibition of HIV NL4.3 integrase N124/T125 double mutant infected in PBMC assessed as reduction in viral replication by p24 ELISA; details: Human immunodeficiency virus 1, NL4.3
# [20] = Inhibition of HIV NL4.3 integrase N124/A125 double mutant infected in PBMC assessed as reduction in viral replication by p24 ELISA; details: Human immunodeficiency virus 1, NL4.3
# Cytochrome P450 3A4 = Cytochrome P450 3A4 (Homo sapiens, UniProt P08684); experiment: Inhibition of CYP3A4 (unknown origin); assay type: ADME
# Chain of Cytochrome P450 3A4 (P08684 whole entry): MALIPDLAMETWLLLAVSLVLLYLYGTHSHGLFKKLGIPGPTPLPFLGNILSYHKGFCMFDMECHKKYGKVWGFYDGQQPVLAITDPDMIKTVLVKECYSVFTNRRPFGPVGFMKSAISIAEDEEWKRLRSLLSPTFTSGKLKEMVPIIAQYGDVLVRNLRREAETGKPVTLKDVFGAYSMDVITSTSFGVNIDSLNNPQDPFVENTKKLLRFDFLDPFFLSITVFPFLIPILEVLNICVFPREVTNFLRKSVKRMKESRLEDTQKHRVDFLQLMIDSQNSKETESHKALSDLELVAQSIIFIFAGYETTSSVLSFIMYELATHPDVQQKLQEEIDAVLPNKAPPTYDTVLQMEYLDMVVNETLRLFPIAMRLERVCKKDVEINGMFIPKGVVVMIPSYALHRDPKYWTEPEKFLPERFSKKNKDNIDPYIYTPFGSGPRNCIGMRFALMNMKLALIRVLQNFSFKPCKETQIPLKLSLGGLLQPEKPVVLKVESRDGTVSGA
# Cytochrome P450 2D6 = Cytochrome P450 2D6 (Homo sapiens, UniProt P10635); experiment: Inhibition of CYP2D6 (unknown origin); assay type: ADME
# Chain of Cytochrome P450 2D6 (P10635 whole entry): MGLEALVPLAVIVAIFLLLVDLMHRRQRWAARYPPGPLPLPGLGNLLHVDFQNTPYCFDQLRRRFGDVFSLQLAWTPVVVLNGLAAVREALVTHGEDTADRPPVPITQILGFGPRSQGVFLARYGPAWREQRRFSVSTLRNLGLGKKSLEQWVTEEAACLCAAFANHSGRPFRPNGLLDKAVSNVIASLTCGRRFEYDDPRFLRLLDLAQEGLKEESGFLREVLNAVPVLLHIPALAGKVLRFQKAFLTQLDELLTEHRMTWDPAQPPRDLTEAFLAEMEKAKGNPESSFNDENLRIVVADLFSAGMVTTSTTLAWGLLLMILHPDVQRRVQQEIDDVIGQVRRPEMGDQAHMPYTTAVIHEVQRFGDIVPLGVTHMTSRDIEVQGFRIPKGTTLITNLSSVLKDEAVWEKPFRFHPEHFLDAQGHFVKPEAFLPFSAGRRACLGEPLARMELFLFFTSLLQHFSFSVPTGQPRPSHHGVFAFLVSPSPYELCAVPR
# Cytochrome P450 1A2 = molecular target: T1, Cytochrome P450 1A2 (Homo sapiens, UniProt P05177); experiment: Inhibition of CYP1A2 (unknown origin); assay type: ADME
# T1 sequence (P05177 whole entry): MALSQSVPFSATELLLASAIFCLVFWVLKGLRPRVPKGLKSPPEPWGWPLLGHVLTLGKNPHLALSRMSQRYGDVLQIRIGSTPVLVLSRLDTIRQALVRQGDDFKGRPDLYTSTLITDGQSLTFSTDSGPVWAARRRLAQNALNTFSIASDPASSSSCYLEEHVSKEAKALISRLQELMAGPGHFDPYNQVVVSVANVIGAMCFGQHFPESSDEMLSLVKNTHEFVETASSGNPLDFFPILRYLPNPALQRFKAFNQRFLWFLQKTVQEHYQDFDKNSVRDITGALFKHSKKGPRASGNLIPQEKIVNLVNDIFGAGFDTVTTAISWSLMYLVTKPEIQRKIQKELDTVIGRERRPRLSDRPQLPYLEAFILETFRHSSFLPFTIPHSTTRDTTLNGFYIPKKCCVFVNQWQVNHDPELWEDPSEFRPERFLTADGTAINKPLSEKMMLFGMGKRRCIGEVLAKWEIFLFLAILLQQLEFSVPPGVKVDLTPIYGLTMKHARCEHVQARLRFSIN
# Cytochrome P450 2C19 = Cytochrome P450 2C19 (Homo sapiens, UniProt P33261); experiment: Inhibition of CYP2C19 (unknown origin); assay type: ADME
# Chain of Cytochrome P450 2C19 (P33261 whole entry): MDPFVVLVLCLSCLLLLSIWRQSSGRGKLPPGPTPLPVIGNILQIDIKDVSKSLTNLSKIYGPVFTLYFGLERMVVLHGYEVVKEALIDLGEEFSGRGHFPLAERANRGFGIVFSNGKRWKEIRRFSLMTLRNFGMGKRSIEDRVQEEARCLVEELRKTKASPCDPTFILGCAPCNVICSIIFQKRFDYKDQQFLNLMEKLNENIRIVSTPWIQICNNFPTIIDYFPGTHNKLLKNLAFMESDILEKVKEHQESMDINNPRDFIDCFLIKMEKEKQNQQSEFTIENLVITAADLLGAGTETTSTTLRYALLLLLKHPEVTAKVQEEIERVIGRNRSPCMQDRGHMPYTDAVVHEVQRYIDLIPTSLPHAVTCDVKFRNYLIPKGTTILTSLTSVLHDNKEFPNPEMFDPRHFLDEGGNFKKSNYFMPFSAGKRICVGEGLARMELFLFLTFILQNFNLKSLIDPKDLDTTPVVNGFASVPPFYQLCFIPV
# Cytochrome P450 2C9 = Cytochrome P450 2C9 (Homo sapiens, UniProt P11712); experiment: Inhibition of CYP2C9 (unknown origin); assay type: ADME
# Chain of Cytochrome P450 2C9 (P11712 whole entry): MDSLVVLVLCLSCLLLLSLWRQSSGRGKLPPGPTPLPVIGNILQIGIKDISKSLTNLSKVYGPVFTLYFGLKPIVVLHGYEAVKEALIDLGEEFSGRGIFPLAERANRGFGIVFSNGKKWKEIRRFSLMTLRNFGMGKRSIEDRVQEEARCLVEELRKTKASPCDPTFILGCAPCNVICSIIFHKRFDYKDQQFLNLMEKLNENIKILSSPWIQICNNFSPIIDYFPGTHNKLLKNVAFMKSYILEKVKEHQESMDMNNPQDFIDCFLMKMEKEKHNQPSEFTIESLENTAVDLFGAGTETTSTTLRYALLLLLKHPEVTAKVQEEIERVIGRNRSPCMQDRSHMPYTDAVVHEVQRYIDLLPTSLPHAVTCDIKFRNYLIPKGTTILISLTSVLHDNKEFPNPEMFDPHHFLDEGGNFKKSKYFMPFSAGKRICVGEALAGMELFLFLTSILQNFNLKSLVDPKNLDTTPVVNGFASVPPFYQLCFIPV
# [21] = Clearance in dog hepatocytes relative to hepatic blood flow; assay type: ADME, cell-based, Canis lupus familiaris, Hepatocyte; details: read-out: CLH
# [22] = Clearance in monkey hepatocytes relative to hepatic blood flow; assay type: ADME, cell-based, Macaca mulatta, Hepatocyte; details: rhesus monkey, read-out: CLH
# [23] = Clearance in iv dosed dog relative to hepatic blood flow; assay type: ADME, organism-based, Canis lupus familiaris; details: in vivo
# [24] = Clearance in iv dosed monkey relative to hepatic blood flow; assay type: ADME, organism-based, Macaca mulatta; details: rhesus monkey, in vivo
structure (smiles),measurement,setting,value
Cc1ccc2nc(-c3nc(C)c([C@H](OC(C)(C)C)C(=O)O)c(-c4ccc5c(c4C)N(C)CCO5)c3C)n(C)c2c1,EC50,[1],3 nM
same,EC50,[2],91 nM
same,Ratio EC50,[3],3.9
same,half-life,[4],1.58 h
Cc1nc(C(=O)N[C@H]2CC[C@H](C)CC2)c(C)c(-c2ccc3c(c2)N(C)CCO3)c1[C@H](OC(C)(C)C)C(=O)O,EC50,[1],6.8 nM
same,EC50,[2],600 nM
same,Ratio EC50,[3],4.1
same,half-life,[4],> 5 h
Cc1nc(NC(=O)c2ccccc2OC(F)(F)F)c(C)c(-c2ccc3c(c2C)N(C)CCO3)c1[C@H](OC(C)(C)C)C(=O)O,EC50,[1],4.7 nM
same,Ratio EC50,[3],2.6
same,half-life,[4],> 5 h
Cc1nc2ccccc2c(-c2ccc3c4c(ccnc24)CCO3)c1[C@H](OC(C)(C)C)C(=O)O [BI-224436],EC50,[1],19 nM
same,EC50,[2],30 nM
same,CL,[5],0.7%
Cc1nc(-c2cn(-c3ccccc3)nn2)c(C)c(-c2ccc3c(c2)CCCO3)c1[C@H](OC(C)(C)C)C(=O)O,EC50,[1],4.7 nM
same,EC50,[2],310 nM
same,Ratio EC50,[3],17
Cc1noc(C)c1-c1ccc(-c2nc(C)c([C@H](OC(C)(C)C)C(=O)O)c(-c3ccc4c(c3)CCCO4)c2C)cc1,EC50,[1],5.5 nM
same,EC50,[2],390 nM
same,Ratio EC50,[3],7.8
Cc1nc(C(=O)Nc2ccccc2)c(C)c(-c2ccc(Cl)cc2)c1[C@H](OC(C)(C)C)C(=O)O,EC50,[1],12 nM
same,EC50,[2],670 nM
Cc1nc(C(=O)N[C@H]2CC[C@H](O)CC2)c(C)c(-c2ccc(Cl)cc2)c1[C@H](OC(C)(C)C)C(=O)O,EC50,[1],930 nM
same,half-life,[4],> 5 h
Cc1nc(C(=O)N[C@H]2CC[C@H](C)CC2)c(C)c(-c2ccc3c(c2C)NCCO3)c1[C@H](OC(C)(C)C)C(=O)O,EC50,[1],7.5 nM
same,EC50,[2],130 nM
same,Ratio EC50,[3],3
same,half-life,[4],3.12 h
Cc1ccc2[nH]c(-c3nc(C)c([C@H](OC(C)(C)C)C(=O)O)c(-c4ccc(Cl)cc4)c3C)nc2c1,EC50,[1],1.1 nM
same,Ratio EC50,[3],13
same,half-life,[4],2.77 h
Cc1nc(C(=O)N[C@H]2CC[C@H](C)CC2)c(C)c(-c2ccc3c(c2C)N(C)CCO3)c1[C@H](OC(C)(C)C)C(=O)O,EC50,[1],2.5 nM
same,EC50,[2],170 nM
same,half-life,[6],1.3 h
same,Ratio EC50,[3],2.9
same,half-life,[4],> 5 h
same,half-life,[7],1.3 h
same,Papp,[8],39.8 ×10⁻⁶ cm/s
same,solubility,[9],930 µg/mL
same,hepatic extraction ratio,[10],0.17
same,hepatic extraction ratio,[11],0.07
same,CL,[12],23%
same,Vd,[13],1.4 L/kg
same,Drug excretion,[14],20%
same,EC50,[15],0.5 nM
same,EC50,[16],0.4 nM
same,EC50,[17],0.6 nM
same,EC50,[18],0.9 nM
same,EC50,[19],27 nM
same,EC50,[20],42 nM
same,IC50,Cytochrome P450 3A4,> 30000 nM
same,IC50,Cytochrome P450 2D6,> 30000 nM
same,IC50,Cytochrome P450 1A2,> 30000 nM
same,IC50,Cytochrome P450 2C19,> 30000 nM
same,IC50,Cytochrome P450 2C9,> 30000 nM
same,hepatic extraction ratio,[21],0.31
same,hepatic extraction ratio,[22],0.31
same,CL,[23],10%
same,CL,[24],30%
Cc1nc(C(=O)NCc2ccccc2)c(C)c(-c2ccc3c(c2)CCCO3)c1[C@H](OC(C)(C)C)C(=O)O,EC50,[1],14 nM
same,EC50,[2],200 nM
same,Ratio EC50,[3],23
Cc1nc(-c2nc3ccccc3n2C)c(C)c(-c2ccc3c(c2C)N(C)CCO3)c1[C@H](OC(C)(C)C)C(=O)O,EC50,[1],3.3 nM
same,EC50,[2],59 nM
same,Ratio EC50,[3],4.9
same,half-life,[4],3.25 h
same,Papp,[8],10.6 ×10⁻⁶ cm/s
same,solubility,[9],> 1000 µg/mL
same,hepatic extraction ratio,[10],0.24
same,hepatic extraction ratio,[11],0.19
same,CL,[12],24%
same,Vd,[13],1.6 L/kg
same,Drug excretion,[14],70%
Cc1nc(C(=O)NC(C)(C)C2CC2)c(C)c(-c2ccc(Cl)cc2)c1[C@H](OC(C)(C)C)C(=O)O,EC50,[1],4.4 nM
same,EC50,[2],560 nM
same,Ratio EC50,[3],1.5
same,half-life,[4],3.63 h
Cc1nc(NC(=O)c2ccccc2)c(C)c(-c2ccc(Cl)cc2)c1[C@H](OC(C)(C)C)C(=O)O,EC50,[1],15 nM
same,EC50,[2],1100 nM
Cc1nc(C(=O)NC2CCN(C)CC2)c(C)c(-c2ccc(Cl)cc2)c1[C@H](OC(C)(C)C)C(=O)O,EC50,[1],2200 nM
Cc1cccc(NC(=O)c2nc(C)c([C@H](OC(C)(C)C)C(=O)O)c(-c3ccc(Cl)cc3)c2C)c1,EC50,[1],3.7 nM
same,half-life,[4],> 5 h
Cc1noc(C)c1-c1ccc(-c2nc(C)c([C@H](OC(C)(C)C)C(=O)O)c(-c3ccc(Cl)cc3)c2C)cc1,EC50,[1],7.7 nM
same,EC50,[2],810 nM
same,CL,[5],0.6%
Cc1nc(C(=O)N[C@H]2CC[C@H](C)CC2)c(C)c(-c2ccc3c4c(cccc24)CCO3)c1[C@H](OC(C)(C)C)C(=O)O,EC50,[1],16 nM
same,EC50,[2],> 2500 nM
same,Ratio EC50,[3],2.9
same,half-life,[4],> 5 h
Cc1nc(NC(=O)c2ccccc2OC(F)(F)F)c(C)c(-c2ccc3c(c2)N(C)CCO3)c1[C@H](OC(C)(C)C)C(=O)O,EC50,[1],7.4 nM
same,EC50,[2],220 nM
same,Ratio EC50,[3],3.4
same,half-life,[4],> 5 h
Cc1nc(-c2nc3ccc(F)cc3n2C)c(C)c(-c2ccc3c(c2C)N(C)CCO3)c1[C@H](OC(C)(C)C)C(=O)O,EC50,[1],3 nM
same,EC50,[2],120 nM
same,Ratio EC50,[3],1.4
same,half-life,[4],1.58 h
Cc1nc(C(=O)N[C@H]2CC[C@H](C)CC2)c(C)c(-c2ccc(Cl)cc2)c1[C@H](OC(C)(C)C)C(=O)O,EC50,[1],7.3 nM
same,EC50,[2],570 nM
same,Ratio EC50,[3],3.7
same,half-life,[4],3.07 h
Cc1nc(C(=O)N[C@H]2CC[C@H](C)CC2)c(C)c(-c2ccc3c(c2)CCCO3)c1[C@H](OC(C)(C)C)C(=O)O,EC50,[1],4.2 nM
same,EC50,[2],220 nM
same,Ratio EC50,[3],4.1
same,half-life,[4],0.817 h
Cc1nc(-c2nc3cccc(C)c3n2C)c(C)c(-c2ccc(Cl)cc2)c1[C@H](OC(C)(C)C)C(=O)O,EC50,[1],3 nM
same,Ratio EC50,[3],3.2
same,half-life,[4],2 h
Cc1nc(C(=O)N[C@H]2CC[C@H](C)CC2)c(C)c(-c2ccc3c(c2)NCCO3)c1[C@H](OC(C)(C)C)C(=O)O,EC50,[1],27 nM
same,EC50,[2],280 nM
same,Ratio EC50,[3],2.1
same,half-life,[4],> 5 h
